Consider 6 compounds from patent publication US4599360A, “Ophthalmic anti-inflammatory agents” (Sankyo Company Limited, priority 1983, dated 1986).

The nature of series [1]: Acute toxicity, oral administration. Set-up: species or system RFVL type mice. The conditions noted are these: mouse, in vivo.
Series [2] deals with eye. Briefly: Eye irritation test (Draize method, evaluated by method of Kay and Calandra). More on the design: key: Draize irritation scores per Kay–Calandra method, mean of 4 rabbits. The class given is in vivo, male Japanese rabbit. Here is the method:
The irritation to the eyes caused by relatively highly concentrated solutions of the compounds of the invention was determined by the Draize method [J. H. Draize et al. J. Pharmacol. Exp. Ther., 82, 377 (1944)] and evaluated by the method of Kay and Calandra [J. H. Kay and J. C. Calandra, J. Soc. Cosmet. Chem., 13, 281 (1962)].
The test solution employed in the present experiment was a simple solution of 10% or 20% by weight of the test compound dissolved in distilled water for injections and adjusted to pH 7 to 8 as required.
Specifically, a male Japanese rabbit of body weight 2.5-3.0 kg was placed in a pillory to fix its head. A single dose of 0.1 ml of the test solution was instilled into its right eye. The symptoms experienced by the anterior portion of the right eye were observed over a period of seven days and the irritation observed was scored. The results are shown in Table 2, in each case averaged over the four rabbits in each test group.

For series [3], the system named is eye. The conditions noted are these: cited from earlier work.
For series [4] the following is noted: result in words; cited from earlier work.

Each structure is given as a SMILES string.

With `CC(C(=O)[O-])c1ccc(CC2CCCC2=O)cc1.[Na+]` (stereo not shown), the figures for the LD50 in series [1] (female mice) and in series [1] (male mice) were 3150 mg/kg and 3030 mg/kg, respectively. Besides, the “Average irritation score, cornea” value in series [2] (rabbit, in vivo) stood at 0. Moreover, the “Average irritation score, iris” value in series [2] (rabbit, in vivo) came out at 0.
On to `CC(C(=O)[O-])c1ccc(C[C@@H]2CCC[C@H]2O)cc1.[Na+]` (relative stereo), for which the “Average irritation score, average” value is recorded as 1.3 in series [2] (10% solution, 0.1 ml, 1 hour); 0 in series [2] (10% solution, 0.1 ml, 24 hours); 0 in series [2] (10% solution, 0.1 ml, 48 hours); 0 in series [2] (10% solution, 0.1 ml, 72 hours); 0 in series [2] (10% solution, 0.1 ml, 96 hours); 0 in series [2] (10% solution, 0.1 ml, 7 days). Also, the “Average irritation score, conjunctiva” value in series [2] (10% solution, 0.1 ml, 1 hour) was determined as 1.3; in series [2] (10% solution, 0.1 ml, 24 hours), 0; in series [2] (10% solution, 0.1 ml, 48 hours) it was 0; in series [2] (10% solution, 0.1 ml, 72 hours), 0; in series [2] (10% solution, 0.1 ml, 96 hours), 0; in series [2] (10% solution, 0.1 ml, 7 days) it was 0. For the same compound, the “Average irritation score, cornea” value came to 0 in series [2] (10% solution, 0.1 ml, 1 hour); 0 in series [2] (10% solution, 0.1 ml, 24 hours); 0 in series [2] (10% solution, 0.1 ml, 48 hours); 0 in series [2] (10% solution, 0.1 ml, 72 hours); 0 in series [2] (10% solution, 0.1 ml, 96 hours); 0 in series [2] (10% solution, 0.1 ml, 7 days). Moreover, the “Average irritation score, iris” value was 0 in series [2] (10% solution, 0.1 ml, 1 hour); 0 in series [2] (10% solution, 0.1 ml, 24 hours); 0 in series [2] (10% solution, 0.1 ml, 48 hours); 0 in series [2] (10% solution, 0.1 ml, 72 hours); 0 in series [2] (10% solution, 0.1 ml, 96 hours); 0 in series [2] (10% solution, 0.1 ml, 7 days).
On to `CC(C(=O)[O-])c1ccc(C=C2CCCCC2=O)cc1.[Na+]` (stereo not shown) [Compound B, sodium 2-[4-(2-oxocyclohexylidenemethyl)phenyl]propionate], for which the “Average irritation score, average” value in series [2] (10% solution, 0.1 ml, 1 hour) is recorded as 1.3; in series [2] (10% solution, 0.1 ml, 24 hours), 0; in series [2] (10% solution, 0.1 ml, 48 hours), 0; in series [2] (10% solution, 0.1 ml, 72 hours), 0; in series [2] (10% solution, 0.1 ml, 96 hours) it was 0; in series [2] (10% solution, 0.1 ml, 7 days), 0. Moreover, the “Average irritation score, conjunctiva” value turned out to be 1.3 in series [2] (10% solution, 0.1 ml, 1 hour); 0 in series [2] (10% solution, 0.1 ml, 24 hours); 0 in series [2] (10% solution, 0.1 ml, 48 hours); 0 in series [2] (10% solution, 0.1 ml, 72 hours); 0 in series [2] (10% solution, 0.1 ml, 96 hours); 0 in series [2] (10% solution, 0.1 ml, 7 days). Moreover, the “Average irritation score, cornea” value is recorded as 0 in series [2] (10% solution, 0.1 ml, 1 hour); 0 in series [2] (10% solution, 0.1 ml, 24 hours); 0 in series [2] (10% solution, 0.1 ml, 48 hours); 0 in series [2] (10% solution, 0.1 ml, 72 hours); 0 in series [2] (10% solution, 0.1 ml, 96 hours); 0 in series [2] (10% solution, 0.1 ml, 7 days). Moreover, the “Average irritation score, iris” value is reported as 0 in series [2] (10% solution, 0.1 ml, 1 hour); 0 in series [2] (10% solution, 0.1 ml, 24 hours); 0 in series [2] (10% solution, 0.1 ml, 48 hours); 0 in series [2] (10% solution, 0.1 ml, 72 hours); 0 in series [2] (10% solution, 0.1 ml, 96 hours); 0 in series [2] (10% solution, 0.1 ml, 7 days).
As to `CC(C)Cc1ccc(C(C)C(=O)O)cc1` (stereo not shown) [Ibuprofen, ibuprofen], the “adverse effects upon the eye reported in the literature” value in series [3] is given as “a variety of visual defects, including toxic amblyopia”.
`COC(=O)c1ccccc1O` [methyl salicylate]: the “toxicity for internal administration” value in series [4] is recorded as “too toxic for internal administration”.
As for `CCCCC1C(=O)N(c2ccccc2)N(c2ccccc2)C1=O` [phenylbutazone], in series [3], the “adverse effects upon the eye reported in the literature” value is “conjunctivitis, toxic amblyopia, Stevens-Johnson syndrome, adhesion of lids to eyeballs, gross scarring of lids, corneal ulceration and scarring, vascularisation of the cornea, loss of vision and possible retinal haemorrhage”.
